Source: patent US4638005A, “Monoquaternized pyrazinium compounds and their use as electron carriers in photosynthetic processes” (The Coca-Cola Company, priority 1983, dated 1987)

Columns and labels:
nitrogenase [1] = biological target: T1, nitrogenase (Azotobacter vinelandii, UniProt P00459); experiment: Chloroplast-coupled reduction of acetylene to ethylene by nitrogenase (electron carrier bioassay of Benemann); format: biochemical; conditions: for ACTIVITY RELATIVE TO FERREDOXIN (%) / ACTIVITY (nmoles C2 H4 /mg protein/min): Table I; for ACTIVITY RELATIVE TO FERREDOXIN (%): acetylene reduction to ethylene; for ACTIVITY (nmoles C2 H4 /mg protein/min): illuminated spinach chloroplasts, synthetic carriers 2 mM, clostridial ferredoxin 0.2 mM; for ETHYLENE FORMATION % Ferredoxin Activity: Table III ranking; for % FERREDOXIN ACTIVITY: Table IV, acetylene reduction
T1 construct: the nitrogenase sample was prepared from a culture of Azotobacter vinelandii; endogenous in cells; host or cells: Azotobacter vinelandii culture; French press lysate, 10,000 x g supernatant (crude)
T1 sequence (P00459 2-290 limits assumed): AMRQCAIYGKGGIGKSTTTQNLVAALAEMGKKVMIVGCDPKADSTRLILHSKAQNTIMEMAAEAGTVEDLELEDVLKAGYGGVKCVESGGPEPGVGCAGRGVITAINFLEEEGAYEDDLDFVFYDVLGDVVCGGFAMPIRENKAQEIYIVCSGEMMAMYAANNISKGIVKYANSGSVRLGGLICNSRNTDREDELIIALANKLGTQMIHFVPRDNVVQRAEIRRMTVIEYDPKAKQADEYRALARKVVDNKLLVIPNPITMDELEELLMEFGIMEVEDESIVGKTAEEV
Protocol: The activity of the pyrazinium compounds as electron carriers in an illuminated photocouple process using isolated chloroplasts and the reductive enzyme catalyst nitrogenease has been determined using the bioassay of Benemann, et al., Proc. Natl. Acad. Sci. USA, 64, 1079(1969). In this method, the carrier activity is measured as a function of nitrogenase reduction of acetylene to ethylene, the rate of production of ethylene being the direct measurement.
(§1) For the bioassay, the nitrogenase sample was prepared from a culture of Azotobacter vinelandii grown to a cell density of about 1 g/l. The cells harvested by centrifugation were broken in a French press, cell debris spun off at 10,000 XG for 1 hr., and the supernatant containing 40 mg/ml protein was used in the bioassay experiments. […] chloroplasts from spinach leaves as described by Benemann were also used. The synthetic carriers were tested in aqueous solutions at concentrations of 2 mM, while the standard, clostridial ferredoxin, was used in 0.2 mM aqueous solution. The concentrations of carriers in the assay mixtures were chosen so as to guarantee carrier saturation conditions. Thus, the observed differences in rates of ethylene production from the substrate acetylene were assigned directly to variations in the efficiency of electron transfer from the illuminated chloroplast to the nitrogenase. The results obtained for acetylene reduction (nitrogen fixation) using the pyrazinium compounds of Examples 1 through 42 are summarized in Table I and are expressed as nmoles of ethylene produced per mg protein per minute.

[2] = Polarographic half-wave potential (first wave reduction); format: physicochemical; conditions: 0.1 M phosphate buffer pH 7.55, 25° C.
Excerpt: Sci., 65, 1471(1976). Therefore, it was of interest to measure polarographically the half-wave potentials of the several pyrazinium salts under consideration, to determine the possible effect of structure upon their redox potentials.

nitrogenase [3] = biological target: T1, nitrogenase; experiment: Chloroplast-coupled evolution of hydrogen by nitrogenase in the absence of substrate; format: biochemical; conditions: Table II, hydrogen evolution; for ACTIVITY (nmoles H2 /mg protein/min): no nitrogen or acetylene, synthetic carriers 2 mM, ferredoxin 0.2 mM
Protocol: as §1
It has been recognized for sometime the connection existing between hydrogen metabolism and nitrogen fixation. […] When nitrogenase was purified extensively, as mentioned above, it became apparent that in addition to nitrogen, nitrogenase also catalyzed the reduction of protons. The evolution of hydrogen is particularly active in the absence of the normal substrates for nitrogenase (nitrogen, acetylene, cyanide, azide, etc.), and is dependent upon a strong reductant and adenosine triphosphate hydrolysis. Since hydrogen evolution is not inhibited by CO, but reduction of nitrogen and other substrates is, the reduction of protons presumably occurs at a site other than the site of nitrogen reduction, H. C. Winter, et. al., Ann Rev. Biochem, 45, 409 (1976). Accordingly, with the same bioassay system and with exclusion of nitrogen, and acetylene, the activity of the pyrazinium compounds to act as carriers for production of hydrogen has been determined.
The results of this study, which are summarized in Table II, indicate that the pyrazinium salts that mediate the reduction of acetylene with electrons from the photoexcited chloroplast, are also mediating the reduction of protons by the nitrogenase.

Row | SMILES | ACTIVITY RELATIVE TO FERREDOXIN (%) (nitrogenase [1]) | ACTIVITY (nmoles C2 H4 /mg protein/min) (nitrogenase [1]) | ETHYLENE FORMATION % Ferredoxin Activity (nitrogenase [1]) | % FERREDOXIN ACTIVITY (nitrogenase [1]) | E1/2 vs. SCE (mV) [2] | ACTIVITY RELATIVE TO FERREDOXIN (%) (nitrogenase [3]) | ACTIVITY (nmoles H2 /mg protein/min) (nitrogenase [3])
1 | O=C(O)CC[n+]1ccncc1.[Br-] [Compound 800, 1-(2-Carboxyethyl)pyrazinium bromide] | 50% | 6.8 nmoles C2 H4 /mg protein/min | 50% | 50% | -625 mV | 28% | 7.5 nmoles H2 /mg protein/min
2 | COC(=O)CCc1c[n+](C)ccn1.[I-] [Compound 3901, 1-methyl-3-(2-carbomethoxyethyl)pyrazinium iodide] | 22% | 3.0 nmoles C2 H4 /mg protein/min | 22% | 22% | -685 mV | 26% | 6.9 nmoles H2 /mg protein/min
3 | C[n+]1ccnc(CS(=O)(=O)[O-])c1 [Compound 2800] | 61% | 8.3 nmoles C2 H4 /mg protein/min | 61% | 61% | -690 mV | 140% | 37.3 nmoles H2 /mg protein/min
4 | C[n+]1ccnc(C(O)CO)c1.[I-] (stereo not drawn) [Compound 2200, 1-Methyl-3-(1,2-dihydroxyethyl)pyrazinium iodide] | 55% | 7.5 nmoles C2 H4 /mg protein/min | 55% | 55% | -704 mV | 98% | 26.2 nmoles H2 /mg protein/min

Other lines, results leading:

Row | ACTIVITY RELATIVE TO FERREDOXIN (%) (nitrogenase [1]) | ACTIVITY (nmoles C2 H4 /mg protein/min) (nitrogenase [1]) | ETHYLENE FORMATION % Ferredoxin Activity (nitrogenase [1]) | % FERREDOXIN ACTIVITY (nitrogenase [1]) | E1/2 vs. SCE (mV) [2] | ACTIVITY RELATIVE TO FERREDOXIN (%) (nitrogenase [3]) | ACTIVITY (nmoles H2 /mg protein/min) (nitrogenase [3]) | SMILES
5 | 2% | 0.3 nmoles C2 H4 /mg protein/min | 2% | 2% | -700 mV | 8% | 2.2 nmoles H2 /mg protein/min | CCc1c[n+](C)ccn1 [Compound 4900]
6 | 98% | 13.3 nmoles C2 H4 /mg protein/min | 98% | 98% | -673 mV | 161% | 43.1 nmoles H2 /mg protein/min | Cc1cnc(CS(=O)(=O)[O-])c[n+]1C [Compound 3200]
7 | 41% | 5.5 nmoles C2 H4 /mg protein/min | 41% | 41% | -683 mV | 86% | 22.9 nmoles H2 /mg protein/min | C[n+]1ccnc(CCC(O)CO)c1.[I-] (stereo not drawn) [Compound 1500, 1-Methyl-3-(3,4-dihydroxybutyl)pyrazinium iodide]
8 | 0% | 0.0 nmoles C2 H4 /mg protein/min | 0% | 0% | -433 mV | 0% | 0.0 nmoles H2 /mg protein/min | C[n+]1ccnc2ccccc21 [Compound 5200]
9 | 104% | 14.0 nmoles C2 H4 /mg protein/min | 104% | 104% | -700 mV | 74% | 19.7 nmoles H2 /mg protein/min | Cc1c[n+](CCCS(=O)(=O)[O-])c(C)cn1 [Compound 700, 1-(3-Sulfonylpropyl)-2,5-dimethylpyrazine]
